Source: PMC5290327, “SC83288 is a clinical development candidate for the treatment of severe malaria” (Nature Communications, 2017)
Converted amounts (≈) assume the structure as drawn. “And” between values parts separate entries of the source, which are not always exact repeats. Identical values can stand only once. “Also recorded” adds a separate entry of the source.

Experiments:
GABA (non-selective) = assay: Radioligand binding
Ames test = details: 50 μM
CCR1 (h) = target: T1, CCR1 (h) (Homo sapiens, UniProt P32246); assay: Radioligand binding
T1 construct: Cerep
T1 sequence (P32246 1-355): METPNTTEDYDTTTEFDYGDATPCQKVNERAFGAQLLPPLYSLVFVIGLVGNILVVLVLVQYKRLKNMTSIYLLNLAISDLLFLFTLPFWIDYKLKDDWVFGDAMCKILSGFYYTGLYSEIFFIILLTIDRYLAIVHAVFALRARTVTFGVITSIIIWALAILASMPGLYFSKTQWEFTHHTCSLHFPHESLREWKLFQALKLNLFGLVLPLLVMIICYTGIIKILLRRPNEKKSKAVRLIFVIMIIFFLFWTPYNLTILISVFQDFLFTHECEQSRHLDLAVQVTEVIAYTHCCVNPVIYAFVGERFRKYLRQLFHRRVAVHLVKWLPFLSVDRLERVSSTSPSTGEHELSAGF

CYP2E1 = CYP2E1 (Homo sapiens, UniProt P05181); assay: CYP inhibition, human liver microsomes; details: for Remaining enzyme activity: CYP2E1, chlorzoxazone to 6-OH-chlorzoxazone, 10 µM
Plasmodium berghei = assay: Rodent malaria model; type: in vivo; details: P. berghei, 30 mg kg-1 i.p. 1x4 days
Description: This was the case for both an in vivo 4 day dosing regimen of 30 mg kg^−1 per day and an ex vivo one-cycle growth inhibition assay. […] Differential therapeutic efficacy in various rodent model systems is a well-established phenomenon and is typically associated with charged compounds, such as positively charged amidines and negatively charged phosphoric acid or carboxylic acid containing drugs. The phenomenon is explained based on selective uptake of charged compounds through parasite-induced channels, termed new permeation pathways, in the host cell plasma membrane and species-specific characteristics of the new permeation pathways.

CCK1 (CCKA) (h) = target: T2, CCK1 (CCKA) (h) (Homo sapiens, UniProt P32238); assay: Radioligand binding
T2 construct: Cerep (contract study)

[1] = system: drug-resistant P. falciparum lab strains other than Dd2; assay: Growth inhibition assay; type: cell-based; details: Plasmodium falciparum
Solubility in water = details: water
P. falciparum strain K1 = assay: microbe, parasite or virus in culture; type: cell-based; details: Plasmodium falciparum
[2] = Solubility in phosphate buffer; type: physicochemical
Description: (§1) SC81458 and SC83288 were soluble in water (890 and 940 μg ml^−1, respectively) and organic solvents. […] The compounds were stable in different physiological solutions, including artificial gastric juice, simulated intestinal fluid, phosphate-buffered saline and human plasma, when incubated for 6 h at 37 °C.

KV channel = assay: Radioligand binding
[3] = In vitro micronucleus assay; details: 60 μM
P. falciparum strain 7G8 = assay: microbe, parasite or virus in culture; type: cell-based; details: Plasmodium falciparum
b2 (h) = target: T3, b2 (h) (Homo sapiens, UniProt P30411); type: binding
T3 construct: Cerep (contract study)

P. falciparum strain Dd2 = assay: Growth inhibition assay, asexual blood stages; type: cell-based, Plasmodium falciparum; details: for IC90: Plasmodium falciparum, DD2, 72 h; for absolute Hill coefficient: in vitro growth inhibition curves
[4] = In vitro metabolism in liver microsomes; details: for remaining after 60 min of incubation: human liver microsomes, 10 μM; for microsomal CLint at 10 μM: human, liver microsomes
Plasmodium vinckei = assay: Rodent malaria model; type: in vivo
Excerpt: The two SC compounds were also active in the Plasmodium vinckei rodent malaria model system.

5-HT3 (h) = target: T4, 5-HT3 (h) (Homo sapiens, UniProt P46098); assay: Radioligand binding
T4 construct: Cerep (contract screening)

b1 (h) = target: T5, b1 (h) (Homo sapiens, UniProt P08588); assay: Radioligand binding
T5 construct: Cerep (contract study)

[5] = Stability in cultured blood cell cultures; type: in vitro ADME; details: 2 μM, at least 6 h, 37 °C
Description: An enriched young trophozoite-stage culture of P. falciparum Dd2 was obtain by magnetic purification and allowed to recover for 1 h at 37 °C in RPMI 1640 medium (Life Technologies) enriched with 1% hypoxanthine (C.C.Pro GmbH) and […] (Life Technologies). The experiment was performed in a total volume of 300 μl, at a haematocrit of 50%, in presence or absence of 2 μM of SC81458 or SC83288, for 6 h at 37 °C under shaking conditions. Each sample was subsequently treated with 1.2 ml of ice-cold acetonitrile, incubated on ice for 10 min and centrifuged for 15 min at 6,000g at 4 °C. Supernatants were stored at −80 °C until mass spectrometric measurement.

D2S (h) = target: T6, D2S (h) (Homo sapiens, UniProt P14416); assay: Radioligand binding
T6 construct: Cerep

[6] = Stability in physiological solutions; type: physicochemical; details: artificial gastric juice, simulated intestinal fluid, PBS, human plasma; 6 h at 37 °C
Description: as §1

CYP1A2 = CYP1A2 (Homo sapiens, UniProt P05177); assay: CYP inhibition, human liver microsomes; details: CYP1A2, melatonin to 6-OH-melatonin, 10 µM
D1 (h) = target: T7, D1 (h) (Homo sapiens, UniProt P21728); assay: Radioligand binding
T7 construct: Cerep

P. falciparum strain D10 = assay: Growth inhibition assay; type: cell-based; details: Plasmodium falciparum
[7] = system: human peripheral blood macrophages; assay: Cytotoxicity; details: 50 μM
[8] = system: P. falciparum strains 3D7 and W2; assay: Efficacy in the Pf/NSG mouse model; type: in vivo, Plasmodium falciparum; details: for reduction of parasite burden within the first 24 h: 10.0 mg kg^−1 per day i.p.; for recrudescence of the infection: 3 weeks survey, exception 3D7-infected mice treated with 2.5 mg kg^−1 of SC81458; for In vivo PCT99.9%: i.p. once per day 4 days
[9] = P. vinckei, 30 mg kg-1 i.p. 1x4 days

CYP2E1, sequence (P05181 whole entry): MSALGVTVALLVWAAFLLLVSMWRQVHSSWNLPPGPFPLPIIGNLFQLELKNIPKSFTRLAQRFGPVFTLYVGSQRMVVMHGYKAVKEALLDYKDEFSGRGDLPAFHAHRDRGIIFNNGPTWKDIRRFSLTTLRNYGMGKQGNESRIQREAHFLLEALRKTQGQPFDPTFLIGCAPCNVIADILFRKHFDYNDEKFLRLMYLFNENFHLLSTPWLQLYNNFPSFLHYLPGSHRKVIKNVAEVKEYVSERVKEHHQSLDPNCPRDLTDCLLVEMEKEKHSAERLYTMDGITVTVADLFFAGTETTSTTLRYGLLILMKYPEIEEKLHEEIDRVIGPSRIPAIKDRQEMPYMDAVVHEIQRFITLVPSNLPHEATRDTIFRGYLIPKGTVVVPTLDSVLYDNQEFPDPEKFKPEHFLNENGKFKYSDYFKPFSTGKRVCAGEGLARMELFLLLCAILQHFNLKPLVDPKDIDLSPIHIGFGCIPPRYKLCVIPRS
T6 sequence (P14416 1-414 isoform P14416-2): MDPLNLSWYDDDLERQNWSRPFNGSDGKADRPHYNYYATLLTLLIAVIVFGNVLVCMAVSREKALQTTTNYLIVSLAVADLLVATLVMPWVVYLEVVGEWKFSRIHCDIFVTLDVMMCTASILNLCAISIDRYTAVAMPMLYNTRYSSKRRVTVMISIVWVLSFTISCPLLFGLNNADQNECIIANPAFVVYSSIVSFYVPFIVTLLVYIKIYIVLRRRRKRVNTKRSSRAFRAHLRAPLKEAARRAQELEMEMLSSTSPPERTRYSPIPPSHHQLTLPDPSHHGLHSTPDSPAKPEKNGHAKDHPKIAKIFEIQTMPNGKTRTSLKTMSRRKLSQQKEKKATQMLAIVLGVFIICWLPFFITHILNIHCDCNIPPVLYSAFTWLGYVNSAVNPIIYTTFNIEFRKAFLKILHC
T3 sequence (P30411 whole entry): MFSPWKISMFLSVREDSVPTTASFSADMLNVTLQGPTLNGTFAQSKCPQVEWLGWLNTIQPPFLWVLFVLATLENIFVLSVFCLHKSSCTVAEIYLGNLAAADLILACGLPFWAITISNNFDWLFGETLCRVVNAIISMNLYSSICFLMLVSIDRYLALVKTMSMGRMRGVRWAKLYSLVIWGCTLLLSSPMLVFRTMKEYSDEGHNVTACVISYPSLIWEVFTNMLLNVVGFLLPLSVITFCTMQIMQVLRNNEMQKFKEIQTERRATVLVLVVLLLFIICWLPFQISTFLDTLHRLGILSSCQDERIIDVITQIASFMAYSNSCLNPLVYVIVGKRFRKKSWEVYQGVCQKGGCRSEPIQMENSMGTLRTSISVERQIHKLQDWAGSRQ
T2 sequence (P32238 whole entry): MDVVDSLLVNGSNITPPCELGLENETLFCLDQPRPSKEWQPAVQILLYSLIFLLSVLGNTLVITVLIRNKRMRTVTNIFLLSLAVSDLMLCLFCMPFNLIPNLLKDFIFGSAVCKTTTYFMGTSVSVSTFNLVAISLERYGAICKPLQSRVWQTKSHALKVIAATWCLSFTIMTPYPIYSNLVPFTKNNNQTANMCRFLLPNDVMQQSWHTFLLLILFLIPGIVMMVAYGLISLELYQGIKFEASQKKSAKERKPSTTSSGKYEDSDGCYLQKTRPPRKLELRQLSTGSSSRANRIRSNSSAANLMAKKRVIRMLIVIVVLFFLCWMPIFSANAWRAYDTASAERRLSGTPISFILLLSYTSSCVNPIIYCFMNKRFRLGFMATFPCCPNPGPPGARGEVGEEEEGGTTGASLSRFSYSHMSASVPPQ
CYP1A2, sequence (P05177 whole entry): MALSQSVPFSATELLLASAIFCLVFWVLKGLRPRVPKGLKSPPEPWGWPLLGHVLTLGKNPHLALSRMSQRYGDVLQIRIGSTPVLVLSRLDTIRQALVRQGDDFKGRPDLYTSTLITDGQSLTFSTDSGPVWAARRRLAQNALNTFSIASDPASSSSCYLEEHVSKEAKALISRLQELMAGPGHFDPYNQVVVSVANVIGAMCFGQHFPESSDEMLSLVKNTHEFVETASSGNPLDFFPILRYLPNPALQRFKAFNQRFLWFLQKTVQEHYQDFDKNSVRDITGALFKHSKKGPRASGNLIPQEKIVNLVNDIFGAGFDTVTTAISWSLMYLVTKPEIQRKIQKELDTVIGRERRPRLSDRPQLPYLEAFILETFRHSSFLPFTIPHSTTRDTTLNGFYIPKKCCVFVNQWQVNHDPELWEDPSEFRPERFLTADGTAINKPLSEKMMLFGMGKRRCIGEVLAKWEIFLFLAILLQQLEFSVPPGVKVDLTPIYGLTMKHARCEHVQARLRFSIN
T7 sequence (P21728 whole entry): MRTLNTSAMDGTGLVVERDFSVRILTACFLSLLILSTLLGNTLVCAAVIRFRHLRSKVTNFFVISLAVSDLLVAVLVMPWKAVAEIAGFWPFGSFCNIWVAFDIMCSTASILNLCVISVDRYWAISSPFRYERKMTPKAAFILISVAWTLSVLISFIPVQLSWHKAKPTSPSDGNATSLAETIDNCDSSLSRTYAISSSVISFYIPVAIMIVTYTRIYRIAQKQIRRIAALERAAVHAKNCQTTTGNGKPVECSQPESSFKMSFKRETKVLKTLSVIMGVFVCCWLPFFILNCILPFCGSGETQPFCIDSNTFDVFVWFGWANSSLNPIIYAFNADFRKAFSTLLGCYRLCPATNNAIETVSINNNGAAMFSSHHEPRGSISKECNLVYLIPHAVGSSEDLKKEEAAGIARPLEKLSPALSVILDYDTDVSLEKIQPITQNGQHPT
T5 sequence (P08588 whole entry): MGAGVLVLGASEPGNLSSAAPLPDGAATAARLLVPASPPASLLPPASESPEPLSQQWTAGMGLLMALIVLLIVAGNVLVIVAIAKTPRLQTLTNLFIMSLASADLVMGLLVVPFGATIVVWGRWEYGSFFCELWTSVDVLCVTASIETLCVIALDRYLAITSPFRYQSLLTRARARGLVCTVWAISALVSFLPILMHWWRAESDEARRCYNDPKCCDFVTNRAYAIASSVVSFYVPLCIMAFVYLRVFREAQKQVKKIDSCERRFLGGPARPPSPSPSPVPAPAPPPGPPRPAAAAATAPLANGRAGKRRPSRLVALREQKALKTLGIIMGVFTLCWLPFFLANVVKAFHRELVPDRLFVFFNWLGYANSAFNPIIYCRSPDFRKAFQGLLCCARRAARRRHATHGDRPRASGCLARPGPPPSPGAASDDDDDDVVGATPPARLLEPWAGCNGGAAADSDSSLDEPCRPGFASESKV
T4 sequence (P46098 24-478): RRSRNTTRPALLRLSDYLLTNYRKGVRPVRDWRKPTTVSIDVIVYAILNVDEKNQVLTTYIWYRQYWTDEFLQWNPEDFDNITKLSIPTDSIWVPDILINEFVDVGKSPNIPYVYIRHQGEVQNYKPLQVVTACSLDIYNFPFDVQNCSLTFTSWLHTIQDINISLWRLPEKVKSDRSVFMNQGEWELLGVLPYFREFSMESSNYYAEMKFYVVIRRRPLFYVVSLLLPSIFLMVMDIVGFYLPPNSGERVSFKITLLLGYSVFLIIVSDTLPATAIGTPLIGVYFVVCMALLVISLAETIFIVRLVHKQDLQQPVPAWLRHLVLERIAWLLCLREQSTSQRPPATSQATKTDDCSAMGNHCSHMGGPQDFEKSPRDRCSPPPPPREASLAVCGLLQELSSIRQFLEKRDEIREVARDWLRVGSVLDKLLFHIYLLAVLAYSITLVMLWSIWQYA

With `CCCCN1CCN(C(=N)c2cccc(NC(=O)Nc3ccc(S(=O)(=O)NCc4ccc(S(N)(=O)=O)cc4)cc3)c2)CC1` [SC81458, 4-(3-(3-((4-butylpiperazin-1-yl)(imino)methyl)phenyl)ureido)-N-(4-sulfamoylbenzyl) benzenesulfonamide] the “Inhibition of control specific binding” value (GABA (non-selective)) was 14%, the “genotoxicity in a reverse Ames test” value (Ames test) was “no signs of genotoxicity” and the “Inhibition of control specific binding” value (CCR1 (h)) was -13%. For the same compound, the Remaining enzyme activity (CYP2E1) was 106%, the Outcome (Plasmodium berghei) was “inactive” and the “Inhibition of control specific binding” value (CCK1 (CCKA) (h)) was 0%. It also gave an IC50 [1] of less than 20 nM, a solubility (Solubility in water) of 890 µg/mL (≈ 1420 µM) and an IC50 (P. falciparum strain K1) of 9 ± 3 nM. For the same compound, the solubility ([2]; pH 4, aqueous buffer) was 1800 µM (≈ 1130 µg/mL), the solubility ([2]; pH 9, aqueous buffer) was 400 µM (≈ 251 µg/mL) and the “Inhibition of control specific binding” value (KV channel) was 0%. For the same compound, the “mutagenic or clastogenic activity, in vitro micronucleus assay” value [3] was “no signs”, the IC50 (P. falciparum strain 7G8) was 18 ± 5 nM and the “Inhibition of control specific binding” value (b2 (h)) was 7%. For the same compound, the IC90 (P. falciparum strain Dd2) was 18 nM, the “absolute Hill coefficient” value (P. falciparum strain Dd2) was 2.6±0.3 and the “remaining after 60 min of incubation” value [4] was “almost completely metabolized”. For the same compound, the microsomal CLint at 10 μM ([4]; monkey) was 303 µL/min/mg, the “parasitemia in treated mice at day 5” value (Plasmodium vinckei; 30 mg kg^−1 per day for 4 days) was 3.3% and the Outcome (Plasmodium vinckei; [9]) was “rescrudescence; also recorded: all treated mice died of a recrudescent parasitemia”. The “Outcome: decrease of parasitemia” value (Plasmodium vinckei; [9]) was > 90% and 97%, the “Inhibition of control specific binding” value (5-HT3 (h)) was 1% and the “Inhibition of control specific binding” value (b1 (h)) was -2%. For the same compound, the “stability in human red blood cells and P. falciparum cultures” value [5] was “stable”, the “Inhibition of control specific binding” value (D2S (h)) was 15% and the “stability in physiological solutions” value [6] was “stable”. The Remaining enzyme activity (CYP1A2) was 95%, the “Inhibition of control specific binding” value (D1 (h)) was 51% and the IC50 (P. falciparum strain D10) was 9 ± 4 nM. For the same compound, the “in vitro propagation / cytotoxicity” value [7] was “did not affect”, the “reduction of parasite burden within the first 24 h” value [8] was roughly 97% and the “recrudescence of the infection” value [8] was “no recrudescence”. The “In vivo PCT99.9%” value ([8]; humanized NSG mouse) was less than 48 h.

With `COC(=O)N1CCN(C(=N)c2cccc(NC(=O)Nc3ccc(S(=O)(=O)NCc4ccc(S(N)(=O)=O)cc4)cc3)c2)CC1` [SC83288, methyl 4-(imino(3-(3-(4-(N-(4-sulfamoylbenzyl)sulfamoyl)phenyl)ureido)phenyl)methyl) piperazine-1-carboxylate] the “Inhibition of control specific binding” value (GABA (non-selective)) was 6%, the “genotoxicity in a reverse Ames test” value (Ames test) was “no signs of genotoxicity” and the “Inhibition of control specific binding” value (CCR1 (h)) was -2%. For the same compound, the Remaining enzyme activity (CYP2E1) was 68%, the inhibition at 20 min, 10 µM (CYP2E1; human, pooled liver microsomes, pH 7.4, probe chlorzoxazone (10 μM)) was 30% and the Outcome (Plasmodium berghei) was “inactive”. The “Inhibition of control specific binding” value (CCK1 (CCKA) (h)) was -5%, the IC50 [1] was less than 20 nM and the solubility (Solubility in water) was 940 µg/mL (≈ 1490 µM). For the same compound, the IC50 (P. falciparum strain K1) was 5 ± 1 nM, the solubility ([2]; pH 4, aqueous buffer) was 2600 µM (≈ 1640 µg/mL) and the solubility ([2]; pH 9, aqueous buffer) was 800 µM (≈ 504 µg/mL). For the same compound, the “Inhibition of control specific binding” value (KV channel) was 2%, the “mutagenic or clastogenic activity, in vitro micronucleus assay” value [3] was “no signs” and the IC50 (P. falciparum strain 7G8) was 10 ± 1 nM. The “Inhibition of control specific binding” value (b2 (h)) was -4%, the IC90 (P. falciparum strain Dd2) was 8 nM and the “absolute Hill coefficient” value (P. falciparum strain Dd2) was 2.6±0.3. The “remaining after 60 min of incubation” value [4] was 50%, the microsomal CLint at 10 μM [4] was 75.8 ± 2.5 µL/min/mg and the Outcome (Plasmodium vinckei; P. vinckei, 20 mg kg-1 i.p. 1x4 days) was “complete clearance, no recrudescence; also recorded: fully cured the infection”. For the same compound, the “Inhibition of control specific binding” value (5-HT3 (h)) was 17%, the “Inhibition of control specific binding” value (b1 (h)) was 7% and the “stability in human red blood cells and P. falciparum cultures” value [5] was “stable”. For the same compound, the “Inhibition of control specific binding” value (D2S (h)) was 1%, the “stability in physiological solutions” value [6] was “stable” and the Remaining enzyme activity (CYP1A2) was 97%. The “Inhibition of control specific binding” value (D1 (h)) was 79%, the IC50 (P. falciparum strain D10) was 5 ± 1 nM and the “in vitro propagation / cytotoxicity” value [7] was “did not affect”. The “reduction of parasite burden within the first 24 h” value [8] was roughly 93%, the “recrudescence of the infection” value [8] was “no recrudescence” and the “free-minimal parasiticidal concentration (MPC)” value ([8]; NSG mice) was 200 nM. For the same compound, the “ED50 (free plasma concentration)” value ([8]; NSG mice, 2 days after commencement of treatment, sigmoidal model fit) was 45 nM, the “ED90 (free plasma concentration)” value ([8]; NSG mice, sigmoidal model fit) was 80 nM and the “reduction of parasitemia over a replicative cycle of 48 h” value ([8]; humanized NSG mouse) was 99.9%. For the same compound, the “In vivo PCT99.9%” value ([8]; humanized NSG mouse) was 48 h and the “In vivo logPRR” value ([8]; humanized NSG mouse, no distinction between strains) was 3.0.
